Experimental data taken from US20260022142A1, “MACROCYCLIC IMMUNOMODULATORS” (Bristol-Myers Squibb Company, priority 2022, published 2026).
Bridge positions count the residues as written; N and C are the ends. Square brackets hold non-standard residues; d marks the D form. Peptide text beside a SMILES is read from it. * marks the point of attachment. ξ: configuration not given here. Bip = N[C@@H](Cc1ccc(-c2ccccc2)cc1)C(=O)O; hArg = N=C(N)NCCCC[C@H](N)C(=O)O; Cha = N[C@@H](CC1CCCCC1)C(=O)O; Cit = NC(=O)NCCC[C@H](N)C(=O)O; Thr(3ξ) = CC(O)[C@H](N)C(=O)O; 12Ado = NCCCCCCCCCCCC(=O)O; Carboxymethyl = O=C(O)C*; Orn = NCCC[C@H](N)C(=O)O; Aun = NCCCCCCCCCCC(=O)O; Dab = NCC[C@H](N)C(=O)O; Dap = NC[C@H](N)C(=O)O; AEEA = NCCOCCOCC(=O)O

Biological target: T1, PD-1/PD-L1 interaction (PE-labeled human PD-L1-Ig binding to Jurkat cell line over-expressing human PD-1) (Homo sapiens, UniProt Q15116)
T1 construct: expressed in transfected cells; host or cells: Jurkat
T1 sequence (Q15116 25-288): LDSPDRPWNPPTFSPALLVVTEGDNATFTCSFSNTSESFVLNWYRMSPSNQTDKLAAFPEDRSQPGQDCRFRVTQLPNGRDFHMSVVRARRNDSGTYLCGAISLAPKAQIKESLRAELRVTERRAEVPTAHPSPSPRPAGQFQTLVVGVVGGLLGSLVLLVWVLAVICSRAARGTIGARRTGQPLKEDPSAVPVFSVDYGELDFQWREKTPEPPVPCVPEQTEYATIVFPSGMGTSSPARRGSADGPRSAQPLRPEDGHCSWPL
Assay: Jurkat-PD-1 Cell Binding High-Content Screening Assay (CBA)
Type: cell-based
Conditions: Jurkat cell line over-expressing human PD-1; PE-labeled PD-L1-Ig 20 nM final; read-out: Jurkat hPD1-PDL1 IC50
In short: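 Jurkat cells over-expressing human PD-1 (8×10^3 per well, DMEM/10% FCS) preincubated with compound 2 h at 37° C, then PE-labeled human PD-L1-Ig (20 nM final) added for 1 h. Cells fixed with paraformaldehyde, Hoechst-stained, and bound fluorescence quantified by high-content imaging.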

Structure (SMILES)	IC50
CC(C)C[C@H]1NC(=O)[C@H](CCCCN)NC(=O)[C@H](C(C)C)NC(=O)[C@H](Cc2ccc(-c3ccccc3)cc2)NC(=O)[C@H](C(C)C)NC(=O)[C@H](Cc2c[nH]c3ccccc23)NC(=O)[C@H](CC(=O)O)NC(=O)[C@H](Cc2ccc(OCC(=O)O)cc2)NC(=O)[C@H](CCCCNC(=N)N)NC(=O)CSC[C@@H](C(=O)NCCOCCOCC(=O)N[C@@H](CCCCN)C(=O)NCCCCCCCCCCC(=O)O)NC(=O)[C@H](CO)NC(=O)[C@H](C(C)C)NC(=O)[C@H](CC2CCCCC2)NC(=O)[C@H](CC(N)=O)NC1=O [Compound 3129] ({CH2CO}-[hArg]Y(Carboxymethyl)DWV[Bip]VK[dL]N[Cha]VSC[AEEA]K[Aun]-OH; thioether N-14)	0.0534 µM
CC(C)C[C@H]1NC(=O)[C@H](CCCN)NC(=O)[C@H](C(C)C)NC(=O)[C@H](Cc2ccc(-c3ccccc3)cc2)NC(=O)[C@H](C(C)C)NC(=O)[C@H](Cc2c[nH]c3ccccc23)NC(=O)[C@H](CC(=O)O)NC(=O)[C@H](Cc2ccc(OCC(=O)O)cc2)NC(=O)[C@H](CCCCNC(=N)N)NC(=O)CSC[C@@H](C(=O)NCC(=O)NCCOCCOCC(=O)N[C@@H](CCCN)C(=O)NCCCCCCCCCCC(=O)O)NC(=O)[C@H](C(C)O)NC(=O)[C@H](C(C)C)NC(=O)[C@H](CC2CCCCC2)NC(=O)[C@H](CCN)NC1=O (stereo partly drawn) [Compound 3130] ({CH2CO}-[hArg]Y(Carboxymethyl)DWV[Bip]V[Orn][dL][Dab][Cha]V[Thr(3ξ)]CG[AEEA][Orn][Aun]-OH; thioether N-14)	0.0165 µM
CC(C)C[C@H]1NC(=O)[C@H](CCCN)NC(=O)[C@H](CCCNC(N)=O)NC(=O)[C@H](Cc2ccc(-c3ccccc3)cc2)NC(=O)[C@H](C(C)C)NC(=O)[C@H](Cc2c[nH]c3ccccc23)NC(=O)[C@H](CC(=O)O)NC(=O)[C@H](Cc2ccc(OCC(=O)O)cc2)NC(=O)[C@H](CN)NC(=O)CSC[C@@H](C(=O)NCCOCCOCC(=O)N[C@@H](CCCCN)C(=O)NCCCCCCCCCCC(=O)O)NC(=O)[C@H](CCCNC(N)=O)NC(=O)[C@H](C(C)C)NC(=O)[C@H](CC2CCCCC2)NC(=O)[C@H](CCN)NC1=O [Compound 3146] ({CH2CO}-[Dap]Y(Carboxymethyl)DWV[Bip][Cit][Orn][dL][Dab][Cha]V[Cit]C[AEEA]K[Aun]-OH; thioether N-14)	0.0078 µM
CC(C)C[C@H]1NC(=O)[C@H](CCCN)NC(=O)[C@H](C(C)C)NC(=O)[C@H](Cc2ccc(-c3ccccc3)cc2)NC(=O)[C@H](C(C)C)NC(=O)[C@H](Cc2c[nH]c3ccccc23)NC(=O)[C@H](CC(=O)O)NC(=O)[C@H](Cc2ccc(OCC(=O)O)cc2)NC(=O)[C@H](CN)NC(=O)CSC[C@@H](C(=O)NCCOCCOCC(=O)N[C@@H](CCCCN)C(=O)NCCCCCCCCCCC(=O)O)NC(=O)[C@H](C(C)O)NC(=O)[C@H](C(C)C)NC(=O)[C@H](CC2CCCCC2)NC(=O)[C@H](CC(=O)O)NC1=O (stereo partly drawn) [Compound 3147] ({CH2CO}-[Dap]Y(Carboxymethyl)DWV[Bip]V[Orn][dL]D[Cha]V[Thr(3ξ)]C[AEEA]K[Aun]-OH; thioether N-14)	0.0297 µM
CC(C)C[C@H]1NC(=O)[C@H](CCCN)NC(=O)[C@H](C(C)C)NC(=O)[C@H](Cc2ccc(-c3ccccc3)cc2)NC(=O)[C@H](C(C)C)NC(=O)[C@H](Cc2c[nH]c3ccccc23)NC(=O)[C@H](CC(=O)O)NC(=O)[C@H](Cc2ccc(OCC(=O)O)cc2)NC(=O)[C@H](CCCNC(N)=O)NC(=O)CSC[C@@H](C(=O)N[C@@H](CCCCN)C(=O)NCCCCCCCCCCC(=O)O)NC(=O)[C@H](C(C)O)NC(=O)[C@H](C(C)C)NC(=O)[C@H](CC2CCCCC2)NC(=O)[C@H](Cc2cnc[nH]2)NC1=O (stereo partly drawn) [Compound 3148] ({CH2CO}-[Cit]Y(Carboxymethyl)DWV[Bip]V[Orn][dL]H[Cha]V[Thr(3ξ)]CK[Aun]-OH; thioether N-14)	0.0567 µM
CC(C)C[C@H]1NC(=O)[C@H](CCCN)NC(=O)[C@H](C(C)C)NC(=O)[C@H](Cc2ccc(-c3ccccc3)cc2)NC(=O)[C@H](C(C)C)NC(=O)[C@H](Cc2c[nH]c3ccccc23)NC(=O)[C@H](CC(=O)O)NC(=O)[C@H](Cc2ccc(OCC(=O)O)cc2)NC(=O)[C@H](CN)NC(=O)CSC[C@@H](C(=O)N[C@@H](CCCN)C(=O)NCCCCCCCCCCC(=O)O)NC(=O)[C@H](C(C)O)NC(=O)[C@H](C(C)C)NC(=O)[C@H](CC2CCCCC2)NC(=O)[C@H](CC(N)=O)NC1=O (stereo partly drawn) [Compound 3149] ({CH2CO}-[Dap]Y(Carboxymethyl)DWV[Bip]V[Orn][dL]N[Cha]V[Thr(3ξ)]C[Orn][Aun]-OH; thioether N-14)	0.0465 µM
CC(C)C[C@H]1NC(=O)[C@H](CCCN)NC(=O)[C@H](C(C)C)NC(=O)[C@H](Cc2ccc(-c3ccccc3)cc2)NC(=O)[C@H](C(C)C)NC(=O)[C@H](Cc2c[nH]c3ccccc23)NC(=O)[C@H](CC(=O)O)NC(=O)[C@H](Cc2ccc(OCC(=O)O)cc2)NC(=O)[C@H](CN)NC(=O)CSC[C@@H](C(=O)N[C@@H](CCCCN)C(=O)NCCCCCCCCCCCC(=O)O)NC(=O)[C@H](C(C)O)NC(=O)[C@H](C(C)C)NC(=O)[C@H](CC2CCCCC2)NC(=O)[C@H](CCCNC(=N)N)NC1=O (stereo partly drawn) [Compound 3150] ({CH2CO}-[Dap]Y(Carboxymethyl)DWV[Bip]V[Orn][dL]R[Cha]V[Thr(3ξ)]CK[12Ado]-OH; thioether N-14)	0.0587 µM
CC(C)C[C@H]1NC(=O)[C@H](CCCN)NC(=O)[C@H](C(C)C)NC(=O)[C@H](Cc2ccc(-c3ccccc3)cc2)NC(=O)[C@H](C(C)C)NC(=O)[C@H](Cc2c[nH]c3ccccc23)NC(=O)[C@H](CC(=O)O)NC(=O)[C@H](Cc2ccc(OCC(=O)O)cc2)NC(=O)[C@H](CCCCNC(=N)N)NC(=O)CSC[C@@H](C(=O)N[C@@H](CCN)C(=O)NCCCCCCCCCCC(=O)O)NC(=O)[C@H](C(C)O)NC(=O)[C@H](C(C)C)NC(=O)[C@H](CC2CCCCC2)NC(=O)[C@H](Cc2cnc[nH]2)NC1=O (stereo partly drawn) [Compound 3151] ({CH2CO}-[hArg]Y(Carboxymethyl)DWV[Bip]V[Orn][dL]H[Cha]V[Thr(3ξ)]C[Dab][Aun]-OH; thioether N-14)	0.0341 µM
CC(C)C[C@H]1NC(=O)[C@H](CCCN)NC(=O)[C@H](C(C)C)NC(=O)[C@H](Cc2ccc(-c3ccccc3)cc2)NC(=O)[C@H](C(C)C)NC(=O)[C@H](Cc2c[nH]c3ccccc23)NC(=O)[C@H](CC(=O)O)NC(=O)[C@H](Cc2ccc(OCC(=O)O)cc2)NC(=O)[C@H](CCCCNC(=N)N)NC(=O)CSC[C@@H](C(=O)N[C@@H](CN)C(=O)NCCCCCCCCCCC(=O)O)NC(=O)[C@H](C(C)O)NC(=O)[C@H](C(C)C)NC(=O)[C@H](CC2CCCCC2)NC(=O)[C@H](Cc2cnc[nH]2)NC1=O (stereo partly drawn) [Compound 3152] ({CH2CO}-[hArg]Y(Carboxymethyl)DWV[Bip]V[Orn][dL]H[Cha]V[Thr(3ξ)]C[Dap][Aun]-OH; thioether N-14)	0.0467 µM
CC(C)C[C@H]1NC(=O)[C@H](CCCN)NC(=O)[C@H](C(C)C)NC(=O)[C@H](Cc2ccc(-c3ccccc3)cc2)NC(=O)[C@H](C(C)C)NC(=O)[C@H](Cc2c[nH]c3ccccc23)NC(=O)[C@H](CC(=O)O)NC(=O)[C@H](Cc2ccc(OCC(=O)O)cc2)NC(=O)[C@H](CCCCNC(=N)N)NC(=O)CSC[C@@H](C(=O)NCCOCCOCC(=O)N[C@@H](CCCN)C(=O)NCCCCCCCCCCCC(=O)O)NC(=O)[C@H](CO)NC(=O)[C@H](C(C)C)NC(=O)[C@H](CC2CCCCC2)NC(=O)[C@H](CCN)NC1=O [Compound 3153] ({CH2CO}-[hArg]Y(Carboxymethyl)DWV[Bip]V[Orn][dL][Dab][Cha]VSC[AEEA][Orn][12Ado]-OH; thioether N-14)	0.012 µM
CC(C)C[C@H]1NC(=O)[C@H](CCCN)NC(=O)[C@H](C(C)C)NC(=O)[C@H](Cc2ccc(-c3ccccc3)cc2)NC(=O)[C@H](C(C)C)NC(=O)[C@H](Cc2c[nH]c3ccccc23)NC(=O)[C@H](CC(=O)O)NC(=O)[C@H](Cc2ccc(OCC(=O)O)cc2)NC(=O)[C@H](CCCCNC(=N)N)NC(=O)CSC[C@@H](C(=O)NCCOCCOCC(=O)N[C@@H](CCCCN)C(=O)NCCCCCCCCCCCC(=O)O)NC(=O)[C@H](CO)NC(=O)[C@H](C(C)C)NC(=O)[C@H](CC2CCCCC2)NC(=O)[C@H](CCN)NC1=O [Compound 3154] ({CH2CO}-[hArg]Y(Carboxymethyl)DWV[Bip]V[Orn][dL][Dab][Cha]VSC[AEEA]K[12Ado]-OH; thioether N-14)	0.0149 µM
CC(C)C[C@H]1NC(=O)[C@H](CCCN)NC(=O)[C@H](C(C)C)NC(=O)[C@H](Cc2ccc(-c3ccccc3)cc2)NC(=O)[C@H](C(C)C)NC(=O)[C@H](Cc2c[nH]c3ccccc23)NC(=O)[C@H](CC(=O)O)NC(=O)[C@H](Cc2ccc(OCC(=O)O)cc2)NC(=O)[C@H](CCCCNC(=N)N)NC(=O)CSC[C@@H](C(=O)N[C@@H](CCCCN)C(=O)NCCCCCCCCCCCC(=O)O)NC(=O)[C@H](CO)NC(=O)[C@H](C(C)C)NC(=O)[C@H](CC2CCCCC2)NC(=O)[C@H](Cc2cnc[nH]2)NC1=O [Compound 3155] ({CH2CO}-[hArg]Y(Carboxymethyl)DWV[Bip]V[Orn][dL]H[Cha]VSCK[12Ado]-OH; thioether N-14)	0.0446 µM
CC(C)C[C@H]1NC(=O)[C@H](CCCN)NC(=O)[C@H](C(C)C)NC(=O)[C@H](Cc2ccc(-c3ccccc3)cc2)NC(=O)[C@H](C(C)C)NC(=O)[C@H](Cc2c[nH]c3ccccc23)NC(=O)[C@H](CC(=O)O)NC(=O)[C@H](Cc2ccc(OCC(=O)O)cc2)NC(=O)[C@H](CCCCNC(=N)N)NC(=O)CSC[C@@H](C(=O)N[C@@H](CCCN)C(=O)NCCCCCCCCCCCC(=O)O)NC(=O)[C@H](CO)NC(=O)[C@H](C(C)C)NC(=O)[C@H](CC2CCCCC2)NC(=O)[C@H](CC(N)=O)NC1=O [Compound 3156] ({CH2CO}-[hArg]Y(Carboxymethyl)DWV[Bip]V[Orn][dL]N[Cha]VSC[Orn][12Ado]-OH; thioether N-14)	0.0345 µM
